According to ChEMBL document CHEMBL1149193, “Selective optimization of side activities: another way for drug discovery” (J Med Chem, 2004):
pIC50, pKi: −log10 of the molar value.

What was measured:
[1] = target: Muscarinic acetylcholine receptor; format: protein assay
Description: (§1) Binding affinity towards human muscarinic receptor

[2] = target: T1, Adrenergic receptor alpha-1 (Homo sapiens, UniProt P35348+P25100+P35368)
T1 sequence (P35348 whole entry): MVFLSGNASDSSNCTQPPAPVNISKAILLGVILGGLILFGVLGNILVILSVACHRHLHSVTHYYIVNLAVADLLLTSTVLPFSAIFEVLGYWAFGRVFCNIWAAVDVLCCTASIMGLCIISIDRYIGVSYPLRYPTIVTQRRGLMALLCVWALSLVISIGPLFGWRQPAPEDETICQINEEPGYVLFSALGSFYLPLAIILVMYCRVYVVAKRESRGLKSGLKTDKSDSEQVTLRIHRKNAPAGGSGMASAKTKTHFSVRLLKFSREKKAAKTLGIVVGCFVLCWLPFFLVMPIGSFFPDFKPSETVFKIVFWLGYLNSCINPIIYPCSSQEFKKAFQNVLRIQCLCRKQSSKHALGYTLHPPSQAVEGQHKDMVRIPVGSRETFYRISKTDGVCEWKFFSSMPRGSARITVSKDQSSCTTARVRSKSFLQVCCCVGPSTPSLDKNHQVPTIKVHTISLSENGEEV
T1 sequence (P25100 whole entry): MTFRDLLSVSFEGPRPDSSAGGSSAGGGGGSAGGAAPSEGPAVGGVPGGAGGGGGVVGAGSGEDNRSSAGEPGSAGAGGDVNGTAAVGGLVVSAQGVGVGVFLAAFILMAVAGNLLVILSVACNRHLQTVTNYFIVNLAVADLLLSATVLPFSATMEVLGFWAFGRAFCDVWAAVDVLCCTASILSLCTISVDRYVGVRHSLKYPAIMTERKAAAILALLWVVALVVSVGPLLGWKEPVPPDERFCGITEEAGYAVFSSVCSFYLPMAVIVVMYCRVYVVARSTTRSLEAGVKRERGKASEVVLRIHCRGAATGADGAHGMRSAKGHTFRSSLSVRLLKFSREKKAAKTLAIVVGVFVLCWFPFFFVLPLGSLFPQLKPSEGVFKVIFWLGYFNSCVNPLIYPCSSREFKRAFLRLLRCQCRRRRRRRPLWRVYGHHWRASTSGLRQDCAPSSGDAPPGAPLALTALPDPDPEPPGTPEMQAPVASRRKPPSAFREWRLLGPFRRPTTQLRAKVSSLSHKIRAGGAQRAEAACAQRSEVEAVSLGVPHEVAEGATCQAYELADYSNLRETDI
T1 sequence (P35368 whole entry): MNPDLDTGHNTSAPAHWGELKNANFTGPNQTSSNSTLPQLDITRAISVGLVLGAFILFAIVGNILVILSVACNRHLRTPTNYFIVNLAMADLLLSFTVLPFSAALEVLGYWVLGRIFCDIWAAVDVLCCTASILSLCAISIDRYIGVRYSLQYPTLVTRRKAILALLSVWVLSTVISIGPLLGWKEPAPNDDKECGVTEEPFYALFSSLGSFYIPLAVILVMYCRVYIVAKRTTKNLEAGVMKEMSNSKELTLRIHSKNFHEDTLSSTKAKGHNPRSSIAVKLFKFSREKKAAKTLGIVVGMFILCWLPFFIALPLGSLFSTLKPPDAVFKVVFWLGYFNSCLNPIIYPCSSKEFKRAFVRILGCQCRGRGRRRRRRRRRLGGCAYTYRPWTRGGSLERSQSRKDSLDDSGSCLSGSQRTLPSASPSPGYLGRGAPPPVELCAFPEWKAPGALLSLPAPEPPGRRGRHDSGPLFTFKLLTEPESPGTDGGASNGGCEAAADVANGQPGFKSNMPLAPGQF
Description: Binding affinity towards human alpha-1 adrenergic receptor

D(4) dopamine receptor = D(4) dopamine receptor (Homo sapiens, UniProt P21917)
Sequence of D(4) dopamine receptor (P21917 whole entry, looked up): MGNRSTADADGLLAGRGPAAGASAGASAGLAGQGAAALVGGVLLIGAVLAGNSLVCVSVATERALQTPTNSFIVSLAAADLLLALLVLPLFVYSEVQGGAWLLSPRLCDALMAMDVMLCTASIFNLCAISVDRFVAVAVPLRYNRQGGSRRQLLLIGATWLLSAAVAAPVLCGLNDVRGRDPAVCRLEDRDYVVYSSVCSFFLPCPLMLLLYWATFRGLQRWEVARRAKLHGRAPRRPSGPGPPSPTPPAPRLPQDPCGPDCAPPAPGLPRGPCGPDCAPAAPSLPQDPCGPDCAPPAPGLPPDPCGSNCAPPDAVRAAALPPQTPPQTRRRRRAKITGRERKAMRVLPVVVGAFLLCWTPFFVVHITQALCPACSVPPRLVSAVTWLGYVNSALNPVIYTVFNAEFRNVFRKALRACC
Description: Binding affinity against human Dopamine receptor D4 versus hD2, hD3 receptor

Acetylcholinesterase [3] = target: T2, Acetylcholinesterase (Electrophorus electricus, UniProt O42275); format: functional
T2 sequence (O42275 whole entry): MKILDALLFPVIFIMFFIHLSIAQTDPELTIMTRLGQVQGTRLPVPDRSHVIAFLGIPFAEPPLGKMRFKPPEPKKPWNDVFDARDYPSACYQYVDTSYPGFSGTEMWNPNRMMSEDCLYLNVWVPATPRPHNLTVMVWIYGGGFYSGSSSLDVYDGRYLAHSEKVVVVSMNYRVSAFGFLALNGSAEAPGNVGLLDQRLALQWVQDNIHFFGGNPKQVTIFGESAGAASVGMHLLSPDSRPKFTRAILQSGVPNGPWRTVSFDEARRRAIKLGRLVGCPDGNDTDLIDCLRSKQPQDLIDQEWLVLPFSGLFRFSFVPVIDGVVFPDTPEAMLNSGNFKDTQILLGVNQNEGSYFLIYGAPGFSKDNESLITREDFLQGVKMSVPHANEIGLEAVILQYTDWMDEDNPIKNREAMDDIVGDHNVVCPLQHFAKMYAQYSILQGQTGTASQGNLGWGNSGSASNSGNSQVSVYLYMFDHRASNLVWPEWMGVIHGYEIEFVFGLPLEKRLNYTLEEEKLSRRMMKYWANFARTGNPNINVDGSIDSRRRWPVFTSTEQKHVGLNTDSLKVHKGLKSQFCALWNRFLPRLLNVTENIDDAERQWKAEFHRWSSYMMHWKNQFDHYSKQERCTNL
Description: (§2) Inhibitory concentration towards acetylcholinesterase in electric eel

Acetylcholinesterase [4] = target: T2, Acetylcholinesterase
Description: as §2

[5] = target: T3, Muscarinic acetylcholine receptor M1 (Homo sapiens, UniProt P11229)
T3 sequence (P11229 whole entry): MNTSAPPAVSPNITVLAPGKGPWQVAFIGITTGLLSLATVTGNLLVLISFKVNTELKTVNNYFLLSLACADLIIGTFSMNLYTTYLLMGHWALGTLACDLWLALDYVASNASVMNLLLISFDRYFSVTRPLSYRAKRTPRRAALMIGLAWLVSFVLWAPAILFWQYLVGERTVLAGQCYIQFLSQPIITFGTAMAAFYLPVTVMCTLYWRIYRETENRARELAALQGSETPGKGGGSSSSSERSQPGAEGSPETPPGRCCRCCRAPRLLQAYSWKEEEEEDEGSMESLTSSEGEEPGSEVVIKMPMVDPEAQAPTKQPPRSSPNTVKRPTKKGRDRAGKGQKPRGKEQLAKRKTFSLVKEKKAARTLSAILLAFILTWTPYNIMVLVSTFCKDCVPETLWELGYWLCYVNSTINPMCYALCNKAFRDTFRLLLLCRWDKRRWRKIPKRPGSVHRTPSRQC
Description: Binding affinity towards muscarinic M1 receptor

[6] = target: T4, Potassium voltage-gated channel subfamily KQT member 1 (Cavia porcellus, UniProt O70344); format: cell-based, Oocyte
T4 sequence (O70344 whole entry): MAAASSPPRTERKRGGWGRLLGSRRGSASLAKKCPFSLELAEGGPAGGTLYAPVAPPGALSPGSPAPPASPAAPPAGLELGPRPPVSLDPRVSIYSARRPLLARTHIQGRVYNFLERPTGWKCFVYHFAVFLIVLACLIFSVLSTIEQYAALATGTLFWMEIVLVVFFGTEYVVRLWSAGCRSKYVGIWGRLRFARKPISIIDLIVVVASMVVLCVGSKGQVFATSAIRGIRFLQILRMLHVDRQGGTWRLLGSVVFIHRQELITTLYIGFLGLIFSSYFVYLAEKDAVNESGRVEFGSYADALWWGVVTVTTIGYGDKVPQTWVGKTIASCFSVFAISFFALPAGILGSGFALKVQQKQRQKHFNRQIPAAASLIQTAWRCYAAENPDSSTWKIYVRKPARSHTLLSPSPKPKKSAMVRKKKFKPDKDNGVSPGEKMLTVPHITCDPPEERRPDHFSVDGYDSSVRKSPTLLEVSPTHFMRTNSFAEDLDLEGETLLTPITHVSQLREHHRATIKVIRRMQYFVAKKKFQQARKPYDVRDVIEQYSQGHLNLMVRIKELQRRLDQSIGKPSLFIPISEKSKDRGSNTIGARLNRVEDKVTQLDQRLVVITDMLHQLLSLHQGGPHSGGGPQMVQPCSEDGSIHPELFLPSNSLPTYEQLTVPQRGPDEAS
Description: (§3) Inhibition of guinea pig Iks potassium channel expressed in Xenopus oocytes

[7] = target: T4, Potassium voltage-gated channel subfamily KQT member 1; format: functional, cell-based, Oocyte
Description: as §3

Endothelin-1 receptor [8] = target: T5, Endothelin-1 receptor (Homo sapiens, UniProt P25101)
T5 sequence (P25101 whole entry): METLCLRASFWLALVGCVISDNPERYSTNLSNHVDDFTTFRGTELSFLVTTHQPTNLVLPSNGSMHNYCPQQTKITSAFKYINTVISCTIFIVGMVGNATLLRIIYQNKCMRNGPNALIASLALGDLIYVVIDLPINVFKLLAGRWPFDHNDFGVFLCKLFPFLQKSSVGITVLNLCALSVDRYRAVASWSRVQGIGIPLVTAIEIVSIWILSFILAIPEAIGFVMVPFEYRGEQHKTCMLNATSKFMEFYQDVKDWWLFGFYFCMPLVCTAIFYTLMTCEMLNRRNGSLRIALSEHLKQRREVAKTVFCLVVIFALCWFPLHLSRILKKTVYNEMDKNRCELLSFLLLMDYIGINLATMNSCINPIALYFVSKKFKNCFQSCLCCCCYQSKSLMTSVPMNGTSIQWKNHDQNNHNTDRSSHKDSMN
Description: Binding affinity against human Endothelin A receptor

[9] = target: T6, Endothelin receptor type B (Homo sapiens, UniProt P24530)
T6 sequence (P24530 whole entry): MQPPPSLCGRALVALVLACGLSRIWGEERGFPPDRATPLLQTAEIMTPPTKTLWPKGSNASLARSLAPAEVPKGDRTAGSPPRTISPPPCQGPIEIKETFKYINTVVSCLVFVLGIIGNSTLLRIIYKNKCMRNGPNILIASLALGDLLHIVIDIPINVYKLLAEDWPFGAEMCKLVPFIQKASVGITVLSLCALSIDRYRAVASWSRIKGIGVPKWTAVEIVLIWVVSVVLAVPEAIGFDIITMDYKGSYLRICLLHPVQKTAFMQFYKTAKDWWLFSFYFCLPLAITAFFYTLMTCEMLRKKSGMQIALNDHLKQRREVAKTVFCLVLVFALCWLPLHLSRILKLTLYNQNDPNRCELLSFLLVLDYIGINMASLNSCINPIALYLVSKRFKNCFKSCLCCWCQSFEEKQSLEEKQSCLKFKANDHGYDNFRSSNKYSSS

Endothelin-1 receptor [10] = target: T5, Endothelin-1 receptor; remark: listed apart in the source
Description: (§4) Inhibitory concentration against Endothelin A receptor

[11] = target: T7, Muscarinic acetylcholine receptor M4 (Homo sapiens, UniProt P08173)
T7 sequence (P08173 whole entry): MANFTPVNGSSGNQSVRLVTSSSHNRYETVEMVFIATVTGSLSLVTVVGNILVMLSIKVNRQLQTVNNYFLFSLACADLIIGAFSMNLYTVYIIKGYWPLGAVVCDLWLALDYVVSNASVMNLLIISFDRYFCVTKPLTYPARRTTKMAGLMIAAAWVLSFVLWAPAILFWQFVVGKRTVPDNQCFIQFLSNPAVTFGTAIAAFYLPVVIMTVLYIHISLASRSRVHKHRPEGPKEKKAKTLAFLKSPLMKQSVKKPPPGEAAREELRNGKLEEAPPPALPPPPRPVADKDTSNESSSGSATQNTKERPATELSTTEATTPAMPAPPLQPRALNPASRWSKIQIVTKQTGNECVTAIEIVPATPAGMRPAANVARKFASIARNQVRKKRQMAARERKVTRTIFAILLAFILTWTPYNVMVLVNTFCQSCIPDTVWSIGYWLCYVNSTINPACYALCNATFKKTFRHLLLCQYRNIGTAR
Description: as §1

D(3) dopamine receptor = D(3) dopamine receptor (Homo sapiens, UniProt P35462)
Sequence of D(3) dopamine receptor (P35462 whole entry): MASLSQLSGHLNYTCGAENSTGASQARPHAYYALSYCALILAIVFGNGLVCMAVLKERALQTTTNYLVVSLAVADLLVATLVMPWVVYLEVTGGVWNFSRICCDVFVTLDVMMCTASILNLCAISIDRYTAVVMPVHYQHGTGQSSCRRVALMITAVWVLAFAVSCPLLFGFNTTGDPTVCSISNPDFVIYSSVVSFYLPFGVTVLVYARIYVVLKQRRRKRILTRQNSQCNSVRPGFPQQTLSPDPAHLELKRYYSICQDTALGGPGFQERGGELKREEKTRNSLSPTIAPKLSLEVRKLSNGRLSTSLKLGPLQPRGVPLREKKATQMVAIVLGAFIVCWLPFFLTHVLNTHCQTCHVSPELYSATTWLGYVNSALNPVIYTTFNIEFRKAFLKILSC
Description: Binding affinity against Dopamine receptor D3

Homo sapiens = organism: Homo sapiens; assay: cells; format: functional, organism-based
Description: Antiviral activity against human respiratory syncytial virus (RSV)

Endothelin-1 receptor [12] = target: T5, Endothelin-1 receptor; remark: listed apart in the source
Description: as §4

in vivo = conditions: rat
Rattus norvegicus = organism: Rattus norvegicus; format: functional
Description: Dose required for oral activity in rats

With `O=C1Cc2cc(CCN3CCN(c4nsc5ccccc45)CC3)c(Cl)cc2N1` [ZIPRASIDONE] the Ki [1] was > 5000 nM and the Ki [2] was 12 nM.
For `COc1cccc(CN2CC[C@H](NC(=O)c3cc(Cl)c(NC(=O)C4CC4)cc3OC)C2)c1`, the pKi (D(4) dopamine receptor) was 8.25.
Molecule `c1ccc(-c2ccc(NCCCCN3CCc4ccccc4C3)nn2)cc1` has a pIC50 (Acetylcholinesterase [3]) of 5.72.
In the case of `Cc1cc(-c2ccccc2)nnc1NCCN1CCOCC1` [MINAPRINE], the pIC50 (Acetylcholinesterase [4]) was 3.22 and the pKi [5] was 4.77.
For `CCS(=O)(=O)N(C)C1c2cc(C#N)ccc2OC(C)(C)[C@H]1O` (single isomer, unassigned), the pIC50 [6] was 4.41 and the pIC50 [7] was 5.21.
With `COc1cc(OC)nc(CC(C(=O)O)C(C)(Oc2ccc(SC)cc2)c2ccccc2)n1` (configuration not stated) the pKi (Endothelin-1 receptor [8]) was 6.80 and the pKi [9] was 5.33.
With `Cc1cc(NCCN2C3CCCC2CC3)nnc1-c1ccccc1` the pKi [5] was 7.30.
With `Nc1ccc(S(=O)(=O)Nc2nccs2)cc1` [SULFATHIAZOLE] the pIC50 (Endothelin-1 receptor [10]) was 4.16.
`c1ccc(-c2ccc(NCCN3CCCCC3)nn2)cc1` gave a pIC50 (Acetylcholinesterase [3]) of 4.89.
In the case of `COc1cc(OC)nc(CC(C(=O)O)C(C)(Oc2ccc(C(C)C)cc2)c2ccccc2)n1` (configuration not stated), the pKi (Endothelin-1 receptor [8]) was 6.60 and the pKi [9] was 5.52.
Work on `Cc1cc(NCCN2CCOCC2)nnc1-c1ccccc1` yielded a pKi [5] of 6.26.
For `Cc1cc(NCCN2C3CCCC2CC3)nnc1-c1ccccc1O`, the pKi [5] was 8.52.
Molecule `CCS(=O)(=O)N(C)C1c2cc(C#N)ccc2OC(C)(C)[C@@H]1O` (single isomer, unassigned) has a pIC50 [6] of 5.30.
For `CN(C)CCOC1=Cc2ccccc2Sc2ccc(Cl)cc21` [ZOTEPINE], the pKi [11] was 6.26.
With `CCCCN1CCCC1CNC(=O)c1cc(C#N)c2ccccc2c1OC` (configuration not stated) [NAFADOTRIDE] the pKi (D(3) dopamine receptor) was 9.96.
`NC(=O)CCN(CCC(N)=O)S(=O)(=O)c1cccc(Nc2nc(Nc3cccc(S(=O)(=O)N(CCC(N)=O)CCC(N)=O)c3)nc(Nc3ccc(-c4ccc(Nc5nc(Nc6cccc(S(=O)(=O)N(CCC(N)=O)CCC(N)=O)c6)nc(Nc6cccc(S(=O)(=O)N(CCC(N)=O)CCC(N)=O)c6)n5)cc4S(=O)(=O)O)c(S(=O)(=O)O)c3)n2)c1` gave a pIC50 (Homo sapiens) of 7.30.
With `O=C1NCCN1CCN1CCC(c2cn(-c3ccc(F)cc3)c3ccc(Cl)cc23)CC1` [SERTINDOLE] the Ki [1] was > 5000 nM and the Ki [2] was 1.8 nM.
`Cc1noc(NS(=O)(=O)c2ccccc2-c2ccc(-c3ncco3)cc2CNC(=O)CC(C)(C)C)c1C` showed a pKi (Endothelin-1 receptor [12]) of 11.00, a bioavailability (in vivo) of 100% and a Dose (Rattus norvegicus) of 3 µM/kg.
`NC(=O)CCN(CCC(N)=O)S(=O)(=O)c1cccc(Nc2nc(Nc3cccc(S(=O)(=O)N(CCC(N)=O)CCC(N)=O)c3)nc(Nc3ccc(/C=C/c4ccc(Nc5nc(Nc6cccc(S(=O)(=O)N(CCC(N)=O)CCC(N)=O)c6)nc(Nc6cccc(S(=O)(=O)N(CCC(N)=O)CCC(N)=O)c6)n5)cc4S(=O)(=O)O)c(S(=O)(=O)O)c3)n2)c1` showed a pIC50 (Homo sapiens) of 6.82.
